In one data set the test system is osteocalcin. In words: Serum osteocalcin suppression, 28-day repeat dose mouse model. Conditions: for Osteocalcin Suppression (ED80 dose): oral gavage 28 days, serum osteocalcin; for Serum osteocalcin (OC) EAUC50 / Serum osteocalcin (OC) EAUC80: data set 2, 28-day repeat dose model. It is filed as in vivo.
Data set [1] concerns Mouse Collagen-Induced Arthritis. The experiment in a line: Therapeutic mouse collagen-induced arthritis (mCIA) model. In kind it is in vivo. The text has this:
(§1) Mouse Collagen-induced arthritis is a commonly used chronic, preclinical model of rheumatoid arthritis in which joint swelling and bone destruction occur following immunization with type II collagen. Reduction of disease incidence and severity has been shown previously to be predictive of disease-modification and signs and symptoms mitigation, respectively, in a clinical setting.
In the therapeutic mCIA model, induction of disease incidence and severity was synchronized via LPS stimulation. Male DBA/J mice were immunized with 100 ug of bovine type II collagen (bCII) on day 0. All mice received an intraperitoneal injection of 20 μg of LPS on day 28 and disease was allowed to develop through day 34. At day 34, all mice had disease (incidence=100%) with an average severity score of seven. Dosing of compounds was initiated in the therapeutic mode on day 34 and continued through day 49. Different treatments were compared by measuring the decrease in incidence (i.e., resolution of disease) and the decrease in severity of paw swelling over time.

Data set [2] deals with cortical bone formation rate. In words: Cortical bone histomorphometry, bone formation rate (BFR). It is filed as in vivo, mouse. How it is done: Sigma-Aldrich, St. […] Calcein incorporates into the bone mineral and allows measurement of bone formation rate. Calcein was dissolved in 2% sodium bicarbonate. During the tissue harvest, the left tibiae were excised and cleaned for cortical histomorphometry measurements. After all skin and muscle were removed, tibiae were placed in 70% ethanol (4° C.) in the dark for a minimum of 24 hours. Ground transverse sections were used for histomorphometric analysis of cortical bone. Bones were sectioned using a low-speed saw (Isomet, Buehler, Lake Bluff, Ill.) equipped with a diamond wafer blade. The end of each tibia was removed proximal to tibia-fibula synostosis and a […] cross-section was cut. Using a roughened glass plate and a cork, sections were ground to […] until transparent and all labels were distinguishable under a fluorescent microscope. […] Sigma-Aldrich, St. Louis, Mo.). Sections were mounted using Eukitt Quick Mounting Medium (#03989, Sigma-Aldrich, St. Louis, Mo.) after which coverslip was applied. […] Bone formation rate was calculated by the following equation: (Inter-label width/Label interval)*(Labeled perimeter/Bone perimeter). At least five samples were measured from each treatment group in each study.

The next data set has as its system TNFα. In words: LPS-induced serum TNFα suppression, 28-day repeat dose mouse model. It is filed as in vivo.
A further data set concerns IL-6. The experiment in a line: IL-6 production in IL-1β-stimulated A549 cells. In kind it is cell-based, human. Here is the method: IL-6 IC50 and % Inhibition
Human A549 lung epithelial cells (American Type Culture Collection, Rockville, Md.) were cultured in Kaighn's F-12K medium with penicillin-streptomycin (10 U/mL) and 10% heat-inactivated fetal bovine serum (all from Invitrogen, Grand Island, N.Y.). A549 cells were plated at a density of 30,000 cells/well in 96-well plates and incubated overnight at 37° C. and with 5% CO2. The cells were serum-starved by replacing the growth medium with serum-free Kaighn's F-12K medium with penicillin-streptomycin (10 U/mL) and, again, incubating overnight at 37° C. and with 5% CO2. On the third day, the medium was replaced with fresh serum-free medium and the cells were incubated with or without compound (vehicle was DMSO at 0.1% maximum concentration) for approximately 1 hour and then stimulated with 1 ng/mL recombinant human IL-1β (R&D Systems, Minneapolis, Minn.) for 20 hours at 37° C. and with 5% CO2. Cell supernatants were collected for determination of IL-6 levels using MSD (Meso Scale Discovery, Gaithersburg, Md.) 96-well Single Spot plates as per the manufacturer's instructions. Plates were read with an MSD Sector Imager 6000. […] Vehicle was used to define the 0% inhibition control. Percent inhibition for each compound concentration, relative to these controls, was calculated using Excel (Microsoft, Redmond, Wash.). […]

Data set [3] is described as follows: Plasma exposure (AUC) in the mouse. It is filed as in vivo.
Source text: Drug exposure, defined as drug plasma concentrations integrated over time
Due to blood volume sampling limitations in mice, AUC(0-4 hr) values were used to make pharmacodynamic comparisons.
Data set [4] has as its system Mouse Collagen-Induced Arthritis. In words: Traditional mouse collagen-induced arthritis (mCIA) model. It is filed as in vivo. How it is done:
as §1
In the traditional mCIA model, male DBA/J mice were immunized with 50 μg chick type II collagen (cCII) in complete Freund's adjuvant and then boosted 21 days later with 50 μg cCII in incomplete Freund's adjuvant. Treatment with compounds was initiated on the morning of the boost and continued for 56 days. The effectiveness of treatment was measured by disease incidence (i.e., number of mice showing any sign of disease) and disease severity, both of which were measured twice a week.

A short description of data set [5]: Solubility and intrinsic dissolution. It is filed as physicochemical. As to conditions: compared with Example 1.
The subject of data set [6] is house dust mite-induced BAL inflammatory cell influx. In words: House dust mite model of asthma, BAL fluid cell infiltration. It is filed as in vivo, mouse. Conditions: mice, 0.1, 1 and 10 mg/kg, p.o., b.i.d.
For data set [7], the target named is full-length glucocorticoid (GR) protein (Homo sapiens (Human), UniProt P04150). In words: Glucocorticoid receptor fluorescence polarization ligand binding (GRFP) assay.
Source text: The glucocorticoid receptor fluorescence polarization ligand binding (GRFP) assay is used to evaluate direct binding of testing compounds to full-length glucocorticoid (GR) protein. Reagents for this assay are purchased from Invitrogen in a test kit. A fluorescent labeled GR ligand is used as a fluorescent tracer and test compounds compete with the fluorescent tracer for GR binding. The change in polarization value in the presence of test compounds is due to binding of test compounds to GR and is used to determine IC50 and relative binding affinity of test compounds for GR.
[8] abbreviates: data set 2, 28-day repeat dose model.
Setting [9] is: data set 2, 28-day repeat dose model, unit assumed.

Experimental findings from patent publication US8901310B2, “Tricyclic compounds, compositions, and methods” (Pfizer Inc., priority 2007, dated 2014) are described below.

Sequence of full-length glucocorticoid (GR) protein (P04150 whole entry): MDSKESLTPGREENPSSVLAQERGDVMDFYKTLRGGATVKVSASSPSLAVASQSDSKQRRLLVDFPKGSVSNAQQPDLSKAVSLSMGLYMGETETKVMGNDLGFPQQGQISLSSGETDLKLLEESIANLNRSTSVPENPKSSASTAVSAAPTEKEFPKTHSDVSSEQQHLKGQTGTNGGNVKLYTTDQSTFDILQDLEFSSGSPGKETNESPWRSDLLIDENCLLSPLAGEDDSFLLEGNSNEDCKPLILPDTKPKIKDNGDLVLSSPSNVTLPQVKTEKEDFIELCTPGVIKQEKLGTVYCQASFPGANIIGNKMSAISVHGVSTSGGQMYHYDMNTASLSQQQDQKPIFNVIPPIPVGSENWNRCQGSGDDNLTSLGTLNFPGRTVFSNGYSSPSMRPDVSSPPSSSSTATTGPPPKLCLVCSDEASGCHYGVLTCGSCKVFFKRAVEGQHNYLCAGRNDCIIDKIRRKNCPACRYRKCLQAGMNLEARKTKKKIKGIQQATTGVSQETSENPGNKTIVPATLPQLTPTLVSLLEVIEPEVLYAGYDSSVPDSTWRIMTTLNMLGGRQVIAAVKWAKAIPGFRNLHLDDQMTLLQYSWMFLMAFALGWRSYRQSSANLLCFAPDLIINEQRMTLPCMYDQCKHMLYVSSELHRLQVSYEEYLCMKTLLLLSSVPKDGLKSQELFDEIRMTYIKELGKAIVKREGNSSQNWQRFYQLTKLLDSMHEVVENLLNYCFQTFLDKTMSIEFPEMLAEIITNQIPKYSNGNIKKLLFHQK

With `Cc1ncccc1NC(=O)c1ccc2c(c1)CC[C@@H]1C[C@@](O)(C(F)F)CC[C@@]21Cc1ccccc1` [Comparator H, (4βS,7R,8αR)-4β-benzyl-7-(difluoromethyl)-7-hydroxy-N-(2-methylpyridin-3-yl)-4β,5,6,7,8,8α,9,10-octahydrophenanthrene-2-carboxamide], the “Osteocalcin Suppression (ED80 dose)” value in the data set with osteocalcin (mouse) is on record as 1.46 mg/kg.

Regarding `Cc1ncccc1NC(=O)c1ccc2c(c1)[C@H](O)C[C@@H]1C[C@@](O)(C(F)(F)F)CC[C@@]21Cc1ccccc1` [Comparator F, (4βS,7R,8αR,10R)-4β-benzyl-7,10-dihydroxy-N-(2-methylpyridin-3-yl)-7-(trifluoromethyl)-4β,5,6,7,8,8α,9,10-octahydrophenanthrene-2-carboxamide], the “Osteocalcin Suppression (ED80 dose)” value in the data set on osteocalcin (mouse) is over 10 mg/kg.

Take `C[C@]12C=CC(=O)C=C1CC[C@@H]1[C@@H]2[C@@H](O)C[C@@]2(C)[C@H]1CC[C@]2(O)C(=O)CO` [Prednisolone]: in data set [1] (AUC 0-4 hr, mouse), the “Disease severity (therapeutic mCIA) EAUC50” value worked out at 0.38 µg·h/mL and the “Disease severity (therapeutic mCIA) EAUC80” value came to 1.19 µg·h/mL. In data set [1] (data set 2), this molecule showed a Disease incidence (therapeutic mCIA) EAUC50 of 0.68 µg·h/mL and a Disease incidence (therapeutic mCIA) EAUC80 of 1.38 µg·h/mL. In data set [1] (data set 2, unit assumed), this molecule came in with a Disease severity (therapeutic mCIA) EAUC50 of 0.38 µg·h/mL and a Disease severity (therapeutic mCIA) EAUC80 of 1.19 µg·h/mL. Moreover, in [1] (mouse), the “Therapeutic mCIA (ED80 dose)” value was found to be 5.5 mg/kg. Also, in the data set with osteocalcin (AUC 0-4 hr, mouse), the “Serum osteocalcin EAUC50” value is 560 ng·h/mL and the “Serum osteocalcin EAUC80” value was determined as 1600 ng·h/mL. Further, in the data set with osteocalcin, the Serum osteocalcin (OC) EAUC50 was determined as 560 ng·h/mL and the Serum osteocalcin (OC) EAUC80 is 1640 ng·h/mL. In [2] (AUC 0-4 hr, mouse), the “Cortical bone formation rate (BFR) EAUC50” value was determined as 0.09 µg·h/mL and the “Cortical bone formation rate (BFR) EAUC80” value amounted to 0.60 µg·h/mL. For the same molecule, in data set [2] (setting [8]), the “Cortical bone formation rate (BFR) EAUC50” value was found to be 0.10 and the “Cortical bone formation rate (BFR) EAUC80” value was 0.66. Moreover, in the data set with TNFα (AUC 0-4 hr, mouse), the “Serum TNFα EAUC50” value was 0.81 µg·h/mL and the “Serum TNFα EAUC80” value is 0.95 µg·h/mL. In the data set with TNFα (setting [9]), the Serum TNFα EAUC50 worked out at 0.82 µg·h/mL and the Serum TNFα EAUC80 came to 0.95 µg·h/mL. Also, in the data set on TNFα (mouse, oral gavage 28 days, LPS-induced serum TNFα), the “TNFα Suppression (ED80 dose)” value was 2.10 mg/kg. The “IL-6 % Inhibition” value in the data set on IL-6 (additional result (footnote a)) is given as 100%. The “AUC(0-4 hr) as share of AUC(0-24 hr)” value in data set [3] is reported as “more than 95%”. In data set [4] (AUC 0-4 hr, mouse), the “Disease incidence (traditional mCIA) EAUC50” value was determined as 0.25 µg·h/mL and the “Disease incidence (traditional mCIA) EAUC80” value was found to be 0.60 µg·h/mL. The “Disease incidence (traditional mCIA) EAUC80” value in data set [4] (data set 2) is given as 0.50.

Regarding `Cc1ncccc1NC(=O)c1ccc2c(c1)CC[C@@H]1C[C@@](OP(=O)(O)O)(C(F)(F)F)CC[C@@]21Cc1ccccc1` [Example 2, (2R,4αS,10αR)-4α-benzyl-7-((2-methylpyridin-3-yl)carbamoyl)-2-(trifluoromethyl)-1,2,3,4,4α,9,10,10α-octahydrophenanthren-2-yl dihydrogen phosphate], the “solubility and intrinsic dissolution” value in [5] is on record as “enhanced”.

As for `Cc1ncccc1NC(=O)c1ccc2c(c1)C(=O)C[C@@H]1C[C@@](O)(C(F)(F)F)CC[C@@]21Cc1ccccc1` [Comparator E, (4βS,7R,8αS)-4β-benzyl-7-hydroxy-N-(2-methylpyridin-3-yl)-10-oxo-7-(trifluoromethyl)-4β,5,6,7,8,8α,9,10-octahydrophenanthrene-2-carboxamide], in the data set on osteocalcin (mouse), the “Osteocalcin Suppression (ED80 dose)” value turned out to be 1.71 mg/kg.

For the molecule `Cc1ccncc1NC(=O)c1ccc2c(c1)CC[C@@H]1C[C@@](O)(C(F)(F)F)CC[C@@]21Cc1ccccc1` [Comparator D, (4βS,7R,8αR)-4β-benzyl-7-hydroxy-N-(4-methylpyridin-3-yl)-7-(trifluoromethyl)-4β,5,6,7,8,8α,9,10-octahydrophenanthrene-2-carboxamide], the “Osteocalcin Suppression (ED80 dose)” value in the data set on osteocalcin (mouse) is 3.06 mg/kg.

The IC50 is the concentration that inhibits the measured activity by half. Regarding `Cc1ncccc1NC(=O)c1ccc2c(c1)CC[C@@H]1C[C@@](O)(C(F)(F)F)CC[C@@]21Cc1ccccc1` [Example 1, (4βS,7R,8αR)-4β-benzyl-7-hydroxy-N-(2-methylpyridin-3-yl)-7-(trifluoromethyl)-4β,5,6,7,8,8α,9,10-octahydrophenanthrene-2-carboxamide], in [1] (data set 2), the Disease incidence (therapeutic mCIA) EAUC50 worked out at 0.12 µg·h/mL and the Disease incidence (therapeutic mCIA) EAUC80 is 0.33 µg·h/mL. In addition, in [1] (data set 2, unit assumed), the Disease severity (therapeutic mCIA) EAUC50 came to 0.09 µg·h/mL and the Disease severity (therapeutic mCIA) EAUC80 worked out at 0.19 µg·h/mL. Further, the “Therapeutic mCIA (ED50 dose)” value in data set [1] (mouse) is given as “less than 1 mg/kg”. In addition, in the data set on osteocalcin, the Serum osteocalcin (OC) EAUC50 was 1310 ng·h/mL and the Serum osteocalcin (OC) EAUC80 is 4150 ng·h/mL. In the data set on TNFα (setting [9]), this molecule showed a Serum TNFα EAUC50 of 0.22 µg·h/mL and a Serum TNFα EAUC80 of 0.33 µg·h/mL. The same molecule came in with a half-inhibitory concentration (IC50) with IL-6 (IL-1β 1 ng/mL, listed as Example 1 free base) of 0.36 nM. For the same molecule, the “cell infiltration into BAL fluid” value in data set [6] is given as “mitigated cell infiltration into BAL fluid dose-dependently”. Moreover, the “Disease incidence (traditional mCIA) EAUC80” value in data set [4] (data set 2) is recorded as 0.10.

For `Cc1ncc(NC(=O)c2ccc3c(c2)CC[C@@H]2C[C@@](O)(CCC(F)(F)F)CC[C@@]32Cc2ccccc2)c(C)n1` [Comparator J, (4βS,7S,8αR)-4β-benzyl-N-(2,4-dimethylpyrimidin-5-yl)-7-hydroxy-7-(3,3,3-trifluoropropyl)-4β,5,6,7,8,8α,9,10-octahydrophenanthrene-2-carboxamide], the “Osteocalcin Suppression (ED80 dose)” value in the data set on osteocalcin (mouse) was 3.58 mg/kg.

In data set [7], `Cc1c(NC(=O)c2ccc3c(c2)CC[C@@H]2C[C@@](O)(C(F)(F)F)CC[C@@]32Cc2ccccc2)ccc[n+]1[O-]` [Comparator G] registered an IC50 of 2.13 nM.

For the molecule `Cc1ncccc1NC(=O)c1ccc2c(c1)C=C[C@@H]1C[C@@](O)(C(F)(F)F)CC[C@@]21Cc1ccccc1` [Comparator I, (4βS,7R,8αS)-4β-benzyl-7-hydroxy-N-(2-methylpyridin-3-yl)-7-(trifluoromethyl)-4β,5,6,7,8,8α-hexahydrophenanthrene-2-carboxamide], the “Osteocalcin Suppression (ED80 dose)” value with osteocalcin (mouse) was over 20 mg/kg.

As to `Cc1cnc(NC(=O)c2ccc3c(c2)CC[C@@H]2C[C@@](O)(C(F)(F)F)CC[C@@]32Cc2ccccc2)c(C)n1` [Comparator B, (4βS,7R,8αR)-4β-benzyl-N-(3,5-dimethylpyrazin-2-yl)-7-hydroxy-7-(trifluoromethyl)-4β,5,6,7,8,8α,9,10-octahydrophenanthrene-2-carboxamide], the “Osteocalcin Suppression (ED80 dose)” value in the data set on osteocalcin (mouse) is over 10 mg/kg.

For the molecule `Cc1ncccc1NC(=O)c1ccc2c(c1)CC[C@@H]1C[C@@](O)(CCC(F)(F)F)CC[C@@]21Cc1ccccc1` [Comparator C, (4βS,7S,8αR)-4β-benzyl-7-hydroxy-N-(2-methylpyridin-3-yl)-7-(3,3,3-trifluoropropyl)-4β,5,6,7,8,8α,9,10-octahydrophenanthrene-2-carboxamide], the “Osteocalcin Suppression (ED80 dose)” value with osteocalcin (mouse) is 2.84 mg/kg.
